The subject of the test is Hs700T human pancreatic adenocarcinoma cells. In words: Subcutaneous model of human pancreatic adenocarcinoma. The test is classed as in vivo, NCR.nu/nu homozygous mice. Conditions: 5FU 35 mg/kg intraperitoneally, once weekly for 4 treatments. How it is done: This study was designed to test the dose-responsive anti-tumor data for an anti-LUCA2 antibody in a subcutaneous model of pancreatic cancer. Fluorouracil (5FU), a cytotoxic chemotherapy agent, was used as a positive control and tested to see if there was a cumulative effect with mu-anti-LUCA2 and 5FU.
Cultured Hs700T human pancreatic adenocarcinoma cells were trypsinized, washed in media, spun down and resuspended in media at 100 million cells per milliliter of media (5 million cells per 0.05 mL volume), then mixed in an equal volume of Matrigel® for a final injection volume of 0.1 mL. 72 NCR.nu/nu homozygous mice were dosed intraperitoneally during the study. The groups were (1) saline control at 0.2 mL, twice weekly for 10 treatments (2) mu-anti-LUCA2 antibody at 50 mg/kg, twice weekly for 10 treatments, (3) Fluorouracil (5FU) at 35 mg/kg, once weekly for 4 treatments, and (4) mu-anti-LUCA2 antibody at 50 mg/kg and 5FU at 35 mg/kg, twice weekly for 10 treatments.
Tumor growth over time was evaluated to determine anti-tumor activity. Tumors were palpable prior to initiation of therapy. Animals responding to antibody treatment were maintained after treatment cessation to determine time to tumor regrowth.

The values that follow come from patent publication US7847070B2, “LUCA2 and antibodies that bind thereto” (Raven biotechnologies, inc., priority 2005, dated 2010).

For the compound `O=c1[nH]cc(F)c(=O)[nH]1` [5FU, Fluorouracil], the “tumor volume inhibition compared to saline control” value is on record as “approximately 21.5%”.
